From publication PMC3753754, “Andrographis paniculata Extract and Andrographolide Modulate the Hepatic Drug Metabolism System and Plasma Tolbutamide Concentrations in Rats” (Evidence-based Complementary and Alternative Medicine : eCAM, 2013) come the findings set out here.

A short description of series [1]: Pharmacokinetics of tolbutamide in control, APE-pretreated and andrographolide-pretreated rats. The series is classed as in vivo, Sprague-Dawley rats. The conditions noted are these: rats, 2 g/kg/day APE or 50 mg/kg/day andrographolide for 5 days before 20 mg/kg tolbutamide. The method, then: Seven-week-old male Sprague-Dawley rats cannulated in the jugular vein were purchased from the Bio LASCO Experimental Animal Center (Taipei, Taiwan). The animals were fed a standard rat diet and were randomly assigned into control, APE-treated, and andrographolide-treated groups (n = 5). Rats were housed in plastic cages in a room kept at 23 ± 1°C and 60 ± 5% relative humidity with a 12-hour light and dark cycle. Food and drinking water were available ad libitum. Control rats were orally administered methyl cellulose. […] After the 5th daily dose, rats were deprived of food overnight. On day 6, a 20 mg/kg oral dose of tolbutamide, as a solution in Cremophor EL (polyoxyl 35 hydrogenated castor oil, Sigma)/ethanol/water (30/10/60, v/v/v), was administered to each rat. After the administration of tolbutamide, serial blood samples were collected up to 12 h after dosing from each rat. The animals were then killed by exsanguination, and the livers were collected.
Tolbutamide was prepared in a solution of Cremophor EL/ethanol/water (30/10/60, v/v/v). After administration, blood samples (~200 μL) were collected from the tail vein of each rat at 0.25, 0.5, 1, 2, 4, 8, and 12 h after dosing. Plasma was separated from blood by centrifugation (4000 ×g for 20 min at 4°C). An aliquot of 50 μL plasma was mixed with 100 μL acetonitrile and then centrifuged at 10,000 ×g for 15 min at 4°C. The supernatant was used to determine the concentration of tolbutamide by LC/MS. Calibration standards of tolbutamide were prepared by serial dilution of a tolbutamide stock solution with blank plasma, yielding final concentrations of tolbutamide ranging from 1 to 300 μg/mL of plasma.
The HPLC system consisted of an Agilent 1100 series LC System (Palo Alto, CA) and an Agilent Zorbax Eclipse XDB-C8 column (3 μm, 3.0 mm × 150 mm), interfaced to an Agilent MSD mass spectrometer equipped with an electrospray ionization source. Column temperature was set at 25°C. The initial mobile phase composition was 30% acetonitrile containing 10 mM ammonium acetate (solvent A) and 70% of 0.1% formic acid (solvent B). The following gradient system was used: 30% A to 50% A (0-1 min), 50% A to 98% A (1–3 min), 98% A (3–9 min), 98% A to 30% A (9-10 min), and 30% A (10–15 min). The flow rate was 0.5 mL/min. Sample injection volume was 10 μL. The MS data acquisition was via selected ion monitoring. The positive ion of the testing compound was selected, and the peak size was measured. The area under the plasma tolbutamide concentration versus time curve (AUC) was calculated by using the trapezoidal method.

Series [2] has as its system CYP2D. Nature of the series: Dextromethorphan O-deethylation in liver microsomes of treated rats. The settings on record: rat liver microsomes; oral 2 g/kg APE or 50 mg/kg AND daily for 5 days. The series is classed as in vivo. The method, then:
Liver was homogenized (1 : 4, w/v) in an ice-cold potassium phosphate buffer (pH 7.4) containing 7.4 mM K2HPO4, 2.6 mM KH2PO4, 1.15% KCl, and 1 mM phenylmethylsulfonyl fluoride (PMSF). Tissue homogenates were centrifuged at 10,000 ×g for 30 min at 4°C. The resulting supernatant was then centrifuged at 105,000 ×g for 1 h at 4°C. The microsomes thus obtained were washed several times to get rid of possible tolbutamide contamination and this can avoid tolbutamide interference of CYP activity, and the microsomes were then suspended in potassium phosphate buffer (pH 7.7) containing 7.5 mM K2HPO4, 14.5 mM KH2PO4, and 1 mM EDTA. […] Metabolites of each CYP enzyme reaction were determined by LC/MS as reported previously. The contents of total CYP and cytochrome b5 were quantified by the method of Omura and Sato [29]. Enzyme activity is expressed as picomoles of metabolite formed per minute per milligram of protein. The NADPH-CYP reductase activity was measured as described by Phillips and Langdon with the use of cytochrome c as the substrate. The microsomal protein concentration was determined by using a Coomassie Plus protein assay kit (Pierce, Rockford, IL, USA).

SMILES strings stand for the structures.

For the molecule `C=C1CC[C@@H]2[C@](C)(CO)[C@H](O)CC[C@@]2(C)[C@@H]1C/C=C1/C(=O)OC[C@H]1O` [andrographolide, Andrographolide], the “Reduction of the AUC0–12 h of tolbutamide compared with controls” value in series [1] is listed as 18%. For the same molecule, the “Dextromethorphan O-deethylase (2D)” value in series [2] is on record as 79.1 ± 30.4 pmol/min/mg protein.
